# Experimental data reported in publication PMC10359466, “Identification of a small-molecule inhibitor that selectively blocks DNA-binding by Trypanosoma brucei replication protein A1” (Nature Communications, 2023).
# “Also recorded” adds a separate entry of the source.
# What was measured:
# [1] = system: human non-small cell lung cancer H460 cells; conditions: read-out: IC50, inhibition of proliferation; cited from earlier work
# T. brucei cells = experiment: AlamarBlue cell viability / growth inhibition of T. brucei; conditions: 10 to 60 μM, even at 60 µM, 72 h
# Method: Synergy H1 microplate reader (BioTek) was used with 560/590 nm (excitation/emission) filter settings and relative fluorescence unit (RFU) values were obtained. The percentage of viable cells were calculated from the RFU values.
# Trypanosome cells were seeded at 1 × 10^3 cells/ml density in 180 µl in a 96-well culture plate in triplicate. […] DMSO was used as a vehicle control at 0.0075%.
compound,measurement,setting,value
"CCOc1ccc2cc(C3CC(c4ccc(Br)cc4)=NN3C(=O)CCC(=O)O)c(Cl)nc2c1 (centres unmarked) [TDRL-505, reference compound]",IC50,[1],30.8 µM
same,Effect on T. brucei proliferation,T. brucei cells,did not observe any effect; also recorded: did not show any toxicity
